Test results published in US8697691B2, “Alkyl 3-((2-amidoethyl)amino)-8-azabicyclo[3.2.1]octane-8-carboxylate analogs as selective M1 agonists and methods of making and using same” (Vanderbilt University, priority 2009, dated 2014).
Where two headings read alike, the source gives them in different places.

Molecular target: T1, human M1 receptor (Homo sapiens, UniProt P11229)
T1 construct: host or cells: CHO-K1
T1 sequence (P11229 1-460): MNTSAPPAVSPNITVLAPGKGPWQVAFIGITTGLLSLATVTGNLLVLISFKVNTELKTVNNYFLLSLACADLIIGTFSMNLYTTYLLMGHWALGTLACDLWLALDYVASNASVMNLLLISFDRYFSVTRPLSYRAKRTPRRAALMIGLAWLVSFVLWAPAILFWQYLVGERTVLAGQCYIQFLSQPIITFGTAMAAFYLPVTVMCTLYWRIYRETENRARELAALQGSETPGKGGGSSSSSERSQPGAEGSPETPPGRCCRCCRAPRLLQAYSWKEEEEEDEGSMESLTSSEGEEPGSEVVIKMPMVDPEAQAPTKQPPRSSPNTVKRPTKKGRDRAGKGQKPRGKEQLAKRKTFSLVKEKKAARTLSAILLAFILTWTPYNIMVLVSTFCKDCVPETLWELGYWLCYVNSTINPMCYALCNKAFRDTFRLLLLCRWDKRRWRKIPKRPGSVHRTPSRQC
Test: Calcium mobilization assay, CHO-K1 cells stably expressing hM1 (high throughput, FDSS 6000)
Type: cell-based
Details: for Emax: CHO-K1, read-out: Efficacy (% Max ACh)
Description: Chinese hamster ovary (CHO-K1) cells stably expressing rat (r)M1 were purchased from the American Type Culture Collection and cultured according to their indicated protocol. CHO cells stably expressing human (h)M2, hM3, and hM5 were described previously (Levey et al., 1991); hM1 and hM4 cDNAs were purchased from Missouri S&T cDNA Resource; rM4 cDNA was provided by T. I. Bonner (National Institutes of Health, Bethesda, Md.). hM1, hM4, and rM4 cDNAs were used to stably transfect CHO-K1 cells purchased from the American Type Culture Collection using Lipofectamine2000. To make stable hM2, hM4 and rM4 cell lines for use in calcium mobilization assays, these cells also were stably transfected with a chimeric G-protein (Gqi5) (provided by B. R. Conklin, University of California, San Francisco) using Lipofectamine 2000. rM1, hM3, and hM5 cells were grown in Ham's F-12 medium containing 10% heat-inactivated fetal bovine serum (FBS), 20 mM HEPES, and 50 μg/mL G418 sulfate. hM2-Gqi5 and hM4-Gqi5 cells were grown in the same medium also containing 500 μg/mL Hygromycin B. Stable rM4-Gqi5 cells were grown in DMEM containing 10% heat-inactivated FBS, 20 mM HEPES, 400 μg/mL G418 sulfate, and 500 μg/mL Hygromycin B. The rat M1 Y381A orthosteric mutant receptor cDNA was generated using the Quik-Change site-directed mutagenesis kit (Stratagene) and verified by sequencing. CHO-K1 cells were stably transfected with this cDNA using Lipofectamine2000 and screened for expression based on calcium mobilization in response to the allosteric M1 agonist N-desmethylclozapine.
For high throughput measurement of agonist-evoked increases in intracellular calcium, CHO-K1 cells stably expressing muscarinic receptors were plated in growth medium lacking G418 and hygromycin at 15,000 cells/20 μL/well (hM1, hM2-Gqi5, hM3, hM4-Gq15, and hM5) in Greiner 384-well black-walled, tissue culture (TC)-treated, clear-bottom plates (VWR). Cells were incubated overnight at 37° C. and 5% CO2. The next day, cells were washed using an ELX 405 (BioTek) with three washes (50 μL) of assay buffer then aspirated to 15 μL. Next, 5 μL of 8 μM Fluo-4/acetoxymethyl ester (Invitrogen, Carlsbad, Calif.) prepared as a 2.3 mM stock in DMSO and mixed in a 1:1 ratio with 10% (w/v) Pluronic F-127 and diluted in assay buffer was added to the wells and the cell plates were incubated for 45 min at 37° C. and 5% CO2. Dye was removed by washing with the ELX 405 (three 50 μL washes of assay buffer) then aspirated to 20 μL. Agonist and compound master plates were formatted in an 11 point CRC format (1:3 dilutions) in 100% DMSO with a starting concentration of 10 mM using the BRAVO liquid handler (Agilent). Test compound CRCs were then transferred to daughter plates ([…]) using the Echo acoustic plate reformatter (Labcyte, Sunnyvale, Calif.) and then diluted into assay buffer (40 μL) to a 2× stock using a Thermo Fisher Combi (Thermo Fisher Scientific, Waltham, Mass.). Calcium flux was measured using the Functional Drug Screening System (FDSS) 6000 (Hamamatsu Corporation, Tokyo, Japan) as an increase in the fluorescent static ratio. 20 μL of Agonist Compounds were applied to cells using the automated system of the FDSS 6000 at 4 s into the 300 s protocol and the data were collected at 1 Hz. Concentration-response curves were generated using a four-parameter logistical equation in XLfit curve fitting software (IDBS, Bridgewater, N.J.) for Excel (Microsoft, Redmond, Wash.) or Prism (GraphPad Software, Inc., San Diego, Calif.).

[1] = human M1, agonist-evoked calcium mobilization in CHO-K1 cells, read-out: Potency (EC50)

Structure (SMILES)	Emax [%]	EC50 [1] [µM]	EC50 [µM]
CC(C)OC(=O)N1C2CCC1CC(NCCNC(=O)c1ccccc1)C2 (stereo not drawn) [Example 37, isopropyl 3-((3-exo)-(2-benzamidoethyl)amino)-8-azabicyclo[3.2.1]octane-8-carboxylate]	7	–	–
CCOC(=O)N1[C@@H]2CC[C@H]1C[C@H](NCCNC(=O)N1CCOCC1)C2 [Example 38, ethyl 3-((3-exo)-(2-(morpholine-4-carboxamido)ethyl)-amino)-8-azabicyclo[3.2.1]octane-8-carboxylate]	37	3.6	–
CCOC(=O)N1[C@@H]2CC[C@H]1C[C@H](NCCNC(=O)c1ccc(F)c(F)c1)C2 [Example 39, ethyl 3-((3-exo)-(2-(3,4-difluorobenzamido)ethyl)-amino)-8-azabicyclo[3.2.1]octane-8-carboxylate]	46	1.4	–
CCOC(=O)N1[C@@H]2CC[C@H]1C[C@H](NCCNC(=O)c1cccs1)C2 [Example 40, ethyl 3-((3-exo)-(2-(thiophene-2-carboxamido)ethyl)-amino)-8-azabicyclo[3.2.1]octane-8-carboxylate]	15	–	2.1
CCOC(=O)N1C2CCC1CC(NCCNC(=O)c1cccc(OC)c1)C2 (stereo not drawn) [Example 41, ethyl 3-((3-exo)-(2-(3-methoxybenzamido)ethyl)-amino)-8-azabicyclo[3.2.1]octane-8-carboxylate]	19	–	–
CCOC(=O)N1[C@@H]2CC[C@H]1C[C@H](NCCNC(=O)c1ccccc1Cl)C2 [Example 42]	25	–	–
